Experiments:
Format in all cases: cell-based
Settings in all cases: 24 h incubation, visual reading
[1] = tested on: Staphylococcus aureus MRSA ATCC 43300; experiment: MIC assay, S. aureus MRSA ATCC 43300
How it was run: (§1)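 Mid-log cultures in MHB were added at 5×10e5 CFU/mL to compounds diluted twofold from 8 to 0.003 μg/ml. Visual inspection after 24 h incubation at 37° C. gave the MIC, the lowest concentration without visible growth.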

[2] = tested on: Streptococcus pneumoniae MDR ATCC 700677; experiment: MIC assay, S. pneumoniae MDR ATCC 700677
How it was run: as §1

[3] = tested on: Enterococcus faecium MDR Van A ATCC 51559; experiment: MIC assay, E. faecium MDR Van A ATCC 51559
How it was run: as §1

## CCCCCC1CCC(C(=O)NC(CCCCN)C(=O)NC(CCCCN)C(=O)NCCCNC(=O)C2NC(=O)C3NC(=O)C(NC(=O)C4NC(=O)C(CC(N)=O)NC(=O)C(NC(=O)C(CC(C)C)NC)C(O)c5ccc(c(Cl)c5)Oc5cc4cc(c5OC4OC(CO)C(O)C(O)C4OC4CC(C)(N)C(O)C(C)O4)Oc4ccc(cc4Cl)C3O)c3ccc(O)c(c3)-c3c(O)cc(O)cc32)CC1 (stereo not drawn) [MCC_005485]
[1]
  Minimum Inhibitory Concentration (MIC) Staph. aureus ATCC43300: xxxxx (xxxxx = <0.01)
[2]
  Minimum Inhibitory Concentration (MIC) S. pneumoniae ATCC 700677: xxxxx (xxxxx = <0.01)
[3]
  Minimum Inhibitory Concentration (MIC) E. faecium ATCC51559: xx (xx = 1-4)

## CCCCCCCCCCC(=O)N[C@@H](CCCCN)C(=O)N[C@@H](CCCCNC(=O)[C@H]1NC(=O)[C@H]2NC(=O)[C@H](NC(=O)[C@@H]3NC(=O)[C@H](CC(N)=O)NC(=O)[C@H](NC(=O)[C@@H](CC(C)C)NC)[C@H](O)c4ccc(c(Cl)c4)Oc4cc3cc(c4O[C@@H]3O[C@H](CO)[C@@H](O)[C@H](O)[C@H]3O[C@H]3C[C@](C)(N)[C@H](O)[C@H](C)O3)Oc3ccc(cc3Cl)[C@H]2O)c2ccc(O)c(c2)-c2c(O)cc(O)cc21)C(N)=O [MCC_005062]
[1]
  Minimum Inhibitory Concentration (MIC) Staph. aureus ATCC43300: xxxx (xxxx = 0.01-<0.1)
[2]
  Minimum Inhibitory Concentration (MIC) S. pneumoniae ATCC 700677: xxxx (xxxx = 0.01-<0.1)
[3]
  Minimum Inhibitory Concentration (MIC) E. faecium ATCC51559: x (x = >4)

## CCCCCOc1ccc(C(=O)N[C@@H](CCCCN)C(=O)N[C@@H](CCCCN)C(=O)N[C@@H](CCCCNC(=O)[C@H]2NC(=O)[C@H]3NC(=O)[C@H](NC(=O)[C@@H]4NC(=O)[C@H](CC(N)=O)NC(=O)[C@H](NC(=O)[C@@H](CC(C)C)NC)[C@H](O)c5ccc(c(Cl)c5)Oc5cc4cc(c5O[C@@H]4O[C@H](CO)[C@@H](O)[C@H](O)[C@H]4O[C@H]4C[C@](C)(N)[C@H](O)[C@H](C)O4)Oc4ccc(cc4Cl)[C@H]3O)c3ccc(O)c(c3)-c3c(O)cc(O)cc32)C(=O)O)cc1 [MCC_005504]
[1]
  Minimum Inhibitory Concentration (MIC) Staph. aureus ATCC43300: xxx (xxx = 0.1-<1)
[2]
  Minimum Inhibitory Concentration (MIC) S. pneumoniae ATCC 700677: xxx (xxx = 0.1-<1)
[3]
  Minimum Inhibitory Concentration (MIC) E. faecium ATCC51559: x (x = >4)

## CCCCCC1CCC(C(=O)N[C@@H](CCCCN)C(=O)N[C@@H](CCCCN)C(=O)N[C@@H](CCCCNC(=O)[C@H]2NC(=O)[C@H]3NC(=O)[C@H](NC(=O)[C@@H]4NC(=O)[C@H](CC(N)=O)NC(=O)[C@H](NC(=O)[C@@H](CC(C)C)NC)[C@H](O)c5ccc(c(Cl)c5)Oc5cc4cc(c5O[C@@H]4O[C@H](CO)[C@@H](O)[C@H](O)[C@H]4O[C@H]4C[C@](C)(N)[C@H](O)[C@H](C)O4)Oc4ccc(cc4Cl)[C@H]3O)c3ccc(O)c(c3)-c3c(O)cc(O)cc32)C(=O)O)CC1 (stereo partly drawn) [MCC_005503]
[1]
  Minimum Inhibitory Concentration (MIC) Staph. aureus ATCC43300: xxxx (xxxx = 0.01-<0.1)
[2]
  Minimum Inhibitory Concentration (MIC) S. pneumoniae ATCC 700677: xxxx (xxxx = 0.01-<0.1)
[3]
  Minimum Inhibitory Concentration (MIC) E. faecium ATCC51559: xx (xx = 1-4)

## CCCCCCCC(=O)NCCCCC(NC(=O)CCCCCCC)C(=O)NC(CCCCN)C(=O)NC(CCCCNC(=O)C1NC(=O)C2NC(=O)C(NC(=O)C3NC(=O)C(CC(N)=O)NC(=O)C(NC(=O)C(CC(C)C)NC)C(O)c4ccc(c(Cl)c4)Oc4cc3cc(c4OC3OC(CO)C(O)C(O)C3OC3CC(C)(N)C(O)C(C)O3)Oc3ccc(cc3Cl)C2O)c2ccc(O)c(c2)-c2c(O)cc(O)cc21)C(=O)NC (stereo not drawn) [MCC_000490]
[1]
  Minimum Inhibitory Concentration (MIC) Staph. aureus ATCC43300: xxxx (xxxx = 0.01-<0.1)
[2]
  Minimum Inhibitory Concentration (MIC) S. pneumoniae ATCC 700677: xxxxx (xxxxx = <0.01)
[3]
  Minimum Inhibitory Concentration (MIC) E. faecium ATCC51559: x (x = >4)

## CNC(=O)C(CCCCNC(=O)C1NC(=O)C2NC(=O)C(NC(=O)C3NC(=O)C(CC(N)=O)NC(=O)C(NC(=O)C(CC(C)C)NC)C(O)c4ccc(c(Cl)c4)Oc4cc3cc(c4OC3OC(CO)C(O)C(O)C3OC3CC(C)(N)C(O)C(C)O3)Oc3ccc(cc3Cl)C2O)c2ccc(O)c(c2)-c2c(O)cc(O)cc21)NC(=O)C(CCCCN)NC(=O)C(CCCCNC(=O)c1ccc(OCc2ccccc2)cc1)NC(=O)c1ccc(OCc2ccccc2)cc1 (stereo not drawn) [MCC_000519]
[1]
  Minimum Inhibitory Concentration (MIC) Staph. aureus ATCC43300: xxxxx (xxxxx = <0.01)
[2]
  Minimum Inhibitory Concentration (MIC) S. pneumoniae ATCC 700677: xxxxx (xxxxx = <0.01)
[3]
  Minimum Inhibitory Concentration (MIC) E. faecium ATCC51559: xx (xx = 1-4)

## CNC(=O)[C@H](CCCCNC(=O)[C@H]1NC(=O)[C@H]2NC(=O)[C@H](NC(=O)[C@@H]3NC(=O)[C@H](CC(N)=O)NC(=O)[C@H](NC(=O)[C@@H](CC(C)C)NC)[C@H](O)c4ccc(c(Cl)c4)Oc4cc3cc(c4O[C@@H]3O[C@H](CO)[C@@H](O)[C@H](O)[C@H]3O)Oc3ccc(cc3Cl)[C@H]2O)c2ccc(O)c(c2)-c2c(O)cc(O)cc21)NC(=O)[C@H](CCCCN)NC(=O)[C@H](CCCCN)NC(=O)[C@H](CCCCNC(=O)Cc1ccc(-c2ccccc2)cc1)NC(=O)Cc1ccc(-c2ccccc2)cc1 [MCC_000653]
[1]
  Minimum Inhibitory Concentration (MIC) Staph. aureus ATCC43300: xxxx (xxxx = 0.01-<0.1)
[2]
  Minimum Inhibitory Concentration (MIC) S. pneumoniae ATCC 700677: xxxx (xxxx = 0.01-<0.1)
[3]
  Minimum Inhibitory Concentration (MIC) E. faecium ATCC51559: xx (xx = 1-4)

## CCCCCOc1ccc(C(=O)NC(CCCCN)C(=O)NC(CCCCN)C(=O)NC(CCCCNC(=O)C2NC(=O)C3NC(=O)C(NC(=O)C4NC(=O)C(CC(N)=O)NC(=O)C(NC(=O)C(CC(C)C)NC)C(O)c5ccc(c(Cl)c5)Oc5cc4cc(c5OC4OC(CO)C(O)C(O)C4OC4CC(C)(N)C(O)C(C)O4)Oc4ccc(cc4Cl)C3O)c3ccc(O)c(c3)-c3c(O)cc(O)cc32)C(=O)NC)cc1 (stereo not drawn) [MCC_000501]
[1]
  Minimum Inhibitory Concentration (MIC) Staph. aureus ATCC43300: xxxx (xxxx = 0.01-<0.1)
[2]
  Minimum Inhibitory Concentration (MIC) S. pneumoniae ATCC 700677: xxxxx (xxxxx = <0.01)
[3]
  Minimum Inhibitory Concentration (MIC) E. faecium ATCC51559: x (x = >4)

## CCCCCCCCCCCC(=O)N[C@@H](CCCCN)C(=O)N[C@@H](CCCCNC(=O)[C@H]1NC(=O)[C@H]2NC(=O)[C@H](NC(=O)[C@@H]3NC(=O)[C@H](CC(N)=O)NC(=O)[C@H](NC(=O)[C@@H](CC(C)C)NC)[C@H](O)c4ccc(c(Cl)c4)Oc4cc3cc(c4O[C@@H]3O[C@H](CO)[C@@H](O)[C@H](O)[C@H]3O[C@H]3C[C@](C)(N)[C@H](O)[C@H](C)O3)Oc3ccc(cc3Cl)[C@H]2O)c2ccc(O)c(c2)-c2c(O)cc(O)cc21)C(=O)O [MCC_005224]
[1]
  Minimum Inhibitory Concentration (MIC) Staph. aureus ATCC43300: xxxx (xxxx = 0.01-<0.1)
[2]
  Minimum Inhibitory Concentration (MIC) S. pneumoniae ATCC 700677: xxxx (xxxx = 0.01-<0.1)
[3]
  Minimum Inhibitory Concentration (MIC) E. faecium ATCC51559: xx (xx = 1-4)

## CNC(CC(C)C)C(=O)NC1C(=O)NC(CC(N)=O)C(=O)NC2C(=O)NC3C(=O)NC(C(=O)NC(C(=O)NCCCCC(NC(=O)C(CCCCN)NC(=O)C(CCCCN)NC(=O)CNC(=O)c4ccc(Oc5ccccc5)cc4)C(=O)O)c4cc(O)cc(O)c4-c4cc3ccc4O)C(O)c3ccc(c(Cl)c3)Oc3cc2cc(c3OC2OC(CO)C(O)C(O)C2OC2CC(C)(N)C(O)C(C)O2)Oc2ccc(cc2Cl)C1O (stereo not drawn) [MCC_000381]
[1]
  Minimum Inhibitory Concentration (MIC) Staph. aureus ATCC43300: xxx (xxx = 0.1-<1)
[2]
  Minimum Inhibitory Concentration (MIC) S. pneumoniae ATCC 700677: xx (xx = 1-4)
[3]
  Minimum Inhibitory Concentration (MIC) E. faecium ATCC51559: x (x = >4)

## CCCCCCCCCCCC(=O)N[C@@H](CCCCN)C(=O)N[C@@H](CCCCNC(=O)[C@H]1NC(=O)[C@H]2NC(=O)[C@H](NC(=O)[C@@H]3NC(=O)[C@H](CC(N)=O)NC(=O)[C@H](NC(=O)[C@@H](CC(C)C)NC)[C@H](O)c4ccc(c(Cl)c4)Oc4cc3cc(c4O[C@@H]3O[C@H](CO)[C@@H](O)[C@H](O)[C@H]3O[C@H]3C[C@](C)(N)[C@H](O)[C@H](C)O3)Oc3ccc(cc3Cl)[C@H]2O)c2ccc(O)c(c2)-c2c(O)cc(O)cc21)C(N)=O [MCC_005063]
[1]
  Minimum Inhibitory Concentration (MIC) Staph. aureus ATCC43300: xxxxx (xxxxx = <0.01)
[2]
  Minimum Inhibitory Concentration (MIC) S. pneumoniae ATCC 700677: xxxxx (xxxxx = <0.01)
[3]
  Minimum Inhibitory Concentration (MIC) E. faecium ATCC51559: xx (xx = 1-4)

## CCCCCCCCCCC(=O)NCCCC[C@H](NC(=O)CCCCCCCCCC)C(=O)N[C@@H](CCCCN)C(=O)N[C@@H](CCCCN)C(=O)N[C@@H](CCCCNC(=O)[C@H]1NC(=O)[C@H]2NC(=O)[C@H](NC(=O)[C@@H]3NC(=O)[C@H](CC(N)=O)NC(=O)[C@H](NC(=O)[C@@H](CC(C)C)NC)[C@H](O)c4ccc(c(Cl)c4)Oc4cc3cc(c4O[C@@H]3O[C@H](CO)[C@@H](O)[C@H](O)[C@H]3O[C@H]3C[C@](C)(N)[C@H](O)[C@H](C)O3)Oc3ccc(cc3Cl)[C@H]2O)c2ccc(O)c(c2)-c2c(O)cc(O)cc21)C(=O)O [MCC_000231]
[1]
  Minimum Inhibitory Concentration (MIC) Staph. aureus ATCC43300: xx (xx = 1-4)
[2]
  Minimum Inhibitory Concentration (MIC) S. pneumoniae ATCC 700677: xx (xx = 1-4)
[3]
  Minimum Inhibitory Concentration (MIC) E. faecium ATCC51559: x (x = >4)

## CCCCCCCCCCCC(=O)N[C@@H](CCCCN)C(=O)N[C@@H](CCCCN)C(=O)NCCCNC(=O)[C@H]1NC(=O)[C@H]2NC(=O)[C@H](NC(=O)[C@@H]3NC(=O)[C@H](CC(N)=O)NC(=O)[C@H](NC(=O)[C@@H](CC(C)C)NC)[C@H](O)c4ccc(c(Cl)c4)Oc4cc3cc(c4O[C@@H]3O[C@H](CO)[C@@H](O)[C@H](O)[C@H]3O[C@H]3C[C@](C)(N)[C@H](O)[C@H](C)O3)Oc3ccc(cc3Cl)[C@H]2O)c2ccc(O)c(c2)-c2c(O)cc(O)cc21 [MCC_000978]
[1]
  Minimum Inhibitory Concentration (MIC) Staph. aureus ATCC43300: xxxxx (xxxxx = <0.01)
[2]
  Minimum Inhibitory Concentration (MIC) S. pneumoniae ATCC 700677: xxxxx (xxxxx = <0.01)
[3]
  Minimum Inhibitory Concentration (MIC) E. faecium ATCC51559: xxx (xxx = 0.1-<1)

## CCCCCCC(CCCC)C(=O)NC(CCCCN)C(=O)NC(CCCCN)C(=O)NC(CCCCNC(=O)C1NC(=O)C2NC(=O)C(NC(=O)C3NC(=O)C(CC(N)=O)NC(=O)C(NC(=O)C(CC(C)C)NC)C(O)c4ccc(c(Cl)c4)Oc4cc3cc(c4OC3OC(CO)C(O)C(O)C3OC3CC(C)(N)C(O)C(C)O3)Oc3ccc(cc3Cl)C2O)c2ccc(O)c(c2)-c2c(O)cc(O)cc21)C(=O)NC (stereo not drawn) [MCC_000496]
[1]
  Minimum Inhibitory Concentration (MIC) Staph. aureus ATCC43300: xxxx (xxxx = 0.01-<0.1)
[2]
  Minimum Inhibitory Concentration (MIC) S. pneumoniae ATCC 700677: xxx (xxx = 0.1-<1)
[3]
  Minimum Inhibitory Concentration (MIC) E. faecium ATCC51559: x (x = >4)

## CN[C@H](CC(C)C)C(=O)N[C@H]1C(=O)N[C@@H](CC(N)=O)C(=O)N[C@H]2C(=O)N[C@H]3C(=O)N[C@H](C(=O)N[C@H](C(=O)NCCCC[C@H](NC(=O)[C@H](CCCCN(C)C)NC(=O)c4ccc(Cl)cc4)C(=O)O)c4cc(O)cc(O)c4-c4cc3ccc4O)[C@H](O)c3ccc(c(Cl)c3)Oc3cc2cc(c3O[C@@H]2O[C@H](CO)[C@@H](O)[C@H](O)[C@H]2O[C@H]2C[C@](C)(N)[C@H](O)[C@H](C)O2)Oc2ccc(cc2Cl)[C@H]1O [MCC_007219]
[1]
  Minimum Inhibitory Concentration (MIC) Staph. aureus ATCC43300: xx (xx = 1-4)
[2]
  Minimum Inhibitory Concentration (MIC) S. pneumoniae ATCC 700677: x (x = >4)
[3]
  Minimum Inhibitory Concentration (MIC) E. faecium ATCC51559: x (x = >4)

From patent US10947271B2, “Antibacterial agents” (THE UNIVERSITY OF QUEENSLAND, priority 2014, dated 2021)
